# According to patent US8222285B2, “1,3-dihydroxy substituted phenylamide glucokinase activators” (Bristol-Myers Squibb Company, priority 2007, dated 2012):
# Target: T1, human glucokinase (GK) (Homo sapiens, UniProt P35557)
# T1 construct: Full-length human hepatic GK (untagged) was expressed in BL21 STAR (DE3)pLysS cells; made in house; host or cells: E. coli BL21 STAR (DE3)pLysS
# T1 sequence (P35557 1-466 isoform P35557-2): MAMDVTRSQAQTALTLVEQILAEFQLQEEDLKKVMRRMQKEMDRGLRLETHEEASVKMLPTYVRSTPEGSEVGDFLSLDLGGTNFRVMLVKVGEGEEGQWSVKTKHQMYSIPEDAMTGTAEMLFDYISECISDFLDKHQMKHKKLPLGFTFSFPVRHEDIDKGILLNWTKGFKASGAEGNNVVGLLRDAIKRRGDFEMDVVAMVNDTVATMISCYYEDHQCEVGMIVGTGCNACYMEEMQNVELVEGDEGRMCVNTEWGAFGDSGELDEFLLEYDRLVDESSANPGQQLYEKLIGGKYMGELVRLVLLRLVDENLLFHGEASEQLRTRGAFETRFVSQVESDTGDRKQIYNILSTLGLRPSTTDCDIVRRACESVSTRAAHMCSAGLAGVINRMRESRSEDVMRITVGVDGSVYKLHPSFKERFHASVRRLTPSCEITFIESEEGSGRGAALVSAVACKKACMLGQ
# Assay: Glucokinase tandem enzymatic assay
# Format: biochemical
# Conditions: 12 mM glucose; expressed as % of basal activation; EC50 could not be calculated; read-out: Maximal activation (%) Human Glucokinase @ 12 mM Glucose
# Procedure: Glucokinase Tandem Enzymatic Assay
# Enzymatic activity of human glucokinase (GK) was measured by incubating GK, ATP, and glucose for discrete time periods followed by quenching with EDTA (ethylenediamine tetra-acetic acid). Relative amounts of product glucose-6-phosphate (G6P) were measured by then running a detection assay using G6P dehydrogenase and measuring the conversion of ThioNAD (thio-nicotinamide adenine dinucleotide) to ThioNADH (thio-dihydronicotinamide adenine dinucleotide) at a wavelength of 405 nm. This ‘uncoupled’ enzymatic reaction is denoted as the GK ‘tandem’ assay. Activation of GK by compounds can be assessed using this assay. The GK tandem assay protocol described below was followed using a range of activator compound concentrations from 0 to 100 μM at 5 and 12 mM of glucose. Human full-length glucokinase (GK, 15 nM) was incubated with 5 or 12 mM glucose in a 384 well black microtiter plate with a clear bottom. To initiate the GK reaction, magnesium-ATP (3 mM final concentration) was added to GK in buffer (final buffer conditions of 25 mM HEPES buffer, pH 7.1, containing 1 mM dithiothreitol and 5% DMSO). The total reaction volume was 20 μL. The reaction was allowed to proceed for ten minutes and was then quenched with 5 μL EDTA; 45 mM final). The components of the detection reaction, ThioNAD and G6PDH (glucose-6-phosphate dehydrogenase) (final concentrations of 650 μM and 3.33 Units, respectively), were then added together in a volume of 25 μL, (to give a total volume of 50 μL). Absorbance measurements were made at 405 nm on a Spectramax Plus 384 absorbance plate reader (Molecular Devices). Absorbance was read, background glucose-6-phosphate levels were subtracted, after which activation was calculated as a percentage of control activity. Control activity was determined using GK in the presence of vehicle (DMSO), with background glucose-6-phosphate subtracted. Background glucose-6-phosphate was determined by pre-quenching GK with EDTA prior to reaction initiation with ATP.
# Expression and Purification of Human GK
# Full-length human hepatic GK (untagged) was expressed in BL21 STAR (DE3)pLysS cells (Invitrogen) at 25° C. as described by Mookhtiar et al. (1). The protein was purified essentially as described by Lange (2) with a slight modification. Briefly, cell pellets were lysed via three rounds of freezing and thawing, centrifuged at 15000 g for clarification, and precipitated with 40-65% (NH4)2SO4. The resulting pellet was resuspended in buffer, dialyzed, and applied directly to a Q-Sepharose (Sigma) column followed by elution with a linear 100-600 mM KCl gradient. GK containing fractions were pooled, dialyzed overnight vs. 25 mM Hepes pH 7.2/1 mM MgCl2/1 mM EDTA/0.1 M KCl/1 mM DTT, then dialyzed again with same buffer with 10% glycerol added.
row,Emax,SMILES
1,124%,CC(C)Oc1cc(Oc2ccc(C(=O)N3CCC3)nc2)cc(C(=O)Nc2ncc(Oc3cccc(C(=O)O)c3)s2)c1 [Example 46]
2,118%,COC[C@H](C)Oc1cc(O[C@@H](C)Cc2ccccc2)cc(C(=O)Nc2ncc(Oc3cccc(C(=O)O)c3)s2)c1 [Example 32]

# Same assay, conditions: 12 mM glucose; full-length human GK 15 nM
row,SMILES,EC50
1,CS(=O)(=O)c1ccc(Oc2cc(Oc3ccnc(Cl)c3)cc(C(=O)Nc3ncc(Oc4cccc(C(=O)O)c4)s3)c2)cc1 [Example 42],170 nM
2,CC(C)Oc1cc(OC(C)C)cc(C(=O)Nc2ncc(Oc3cccc(C(=O)O)c3)s2)c1 [Example 11],171 nM
3,COC[C@H](C)Oc1cc(Oc2ccc(S(C)(=O)=O)cc2)cc(C(=O)Nc2ncc(Oc3cccc(C(=O)N4CCC4)c3)s2)c1 [Example 33],6 nM

# Second part, the molecule after the results:
row,EC50,SMILES
1,13 nM,COC[C@H](C)Oc1cc(Oc2ccc(S(C)(=O)=O)cc2)cc(C(=O)Nc2ncc(Oc3cccc(C(N)=O)c3)s2)c1 [Example 3]
2,16 nM,COC[C@H](C)Oc1cc(Oc2ccc(S(C)(=O)=O)cc2)cc(C(=O)Nc2ncc(Oc3cccc(C(=O)N4CC(O)C4)c3)s2)c1 [Example 34]
3,179 nM,CC(C)Oc1cc(OC(C)C)cc(C(=O)Nc2ncc(Oc3ccc(F)nc3)s2)c1 [Example 17]
4,47 nM,COC[C@H](C)Oc1cc(Oc2ccc(S(C)(=O)=O)cc2)cc(C(=O)Nc2ncc(Oc3cccc(C(=O)O)c3)s2)c1 [Example 4]
5,34 nM,CC(C)Oc1cc(Oc2ccc(S(C)(=O)=O)nc2)cc(C(=O)Nc2ncc(Oc3cccc(C(=O)O)c3)s2)c1 [Example 45]

# Same assay, conditions: read-out: Maximal activation (%) Human Glucokinase @ 12 mM Glucose
row,SMILES,Emax
1,CNC(=O)Oc1cccc(Oc2cnc(NC(=O)c3cc(Oc4ccc(S(C)(=O)=O)cc4)cc(O[C@@H](C)COC)c3)s2)c1 [Example 38],144%

# Tested on: male DIO (diet-induced obese) C57BL/6J mice
# Assay: Oral glucose tolerance test (OGTT) in DIO mice
# Format: in vivo
# Conditions: 30 mg/kg oral, 60 min before 2 g/kg oral glucose; ΔAUC 0-120 min; DIO C57BL/6J mice
# Procedure: In Vivo Studies: Oral Glucose Tolerance Test (OGTT)
# Oral glucose tolerance tests were carried out on male DIO (diet-induced obese) C57BL/6J mice fed a high fat diet (60% kcal from fat) for 26 weeks prior to experimentation. Mice were fasted overnight before use for experiments. A test compound or vehicle (10% dimethyl acetamide+10% ethanol+10% Cremophore+70% water) was given orally 60 min before oral administration of a glucose solution at a dose of 2 g/kg body weight (oral glucose tolerance test; OGTT). Blood glucose levels were measured from tail-bled samples taken at different time points before and after administration of glucose (time course of 2 hours). A time curve of the blood glucose was generated and the change from baseline area-under-the curve (ΔAUC) from 0-120 min was calculated (the time glucose administration being time zero).
row,SMILES,Reduction in Glucose AUC at 30 mg/kg dose
1,COC[C@H](C)Oc1cc(Oc2ccc(S(C)(=O)=O)cc2)cc(C(=O)Nc2ncc(Oc3cccc(C(=O)O)c3)s2)c1 [Example 4],37%
